Test results reported in US20080051429A1, “USE OF 4-AMINO-PIPERIDINES FOR TREATING SLEEP DISORDERS” (priority 2006, published 2008).

Tests used:
Assay in all cases: R-SAT broad profiling
Assay type in all cases: cell-based
m4 = target: T1, m4 (Homo sapiens, UniProt P08173); conditions: agonist; read-out: pEC50 or pIC50 (converted)
T1 construct: expressed in transfected cells; host or cells: NIH3T3
T1 sequence (P08173 1-479): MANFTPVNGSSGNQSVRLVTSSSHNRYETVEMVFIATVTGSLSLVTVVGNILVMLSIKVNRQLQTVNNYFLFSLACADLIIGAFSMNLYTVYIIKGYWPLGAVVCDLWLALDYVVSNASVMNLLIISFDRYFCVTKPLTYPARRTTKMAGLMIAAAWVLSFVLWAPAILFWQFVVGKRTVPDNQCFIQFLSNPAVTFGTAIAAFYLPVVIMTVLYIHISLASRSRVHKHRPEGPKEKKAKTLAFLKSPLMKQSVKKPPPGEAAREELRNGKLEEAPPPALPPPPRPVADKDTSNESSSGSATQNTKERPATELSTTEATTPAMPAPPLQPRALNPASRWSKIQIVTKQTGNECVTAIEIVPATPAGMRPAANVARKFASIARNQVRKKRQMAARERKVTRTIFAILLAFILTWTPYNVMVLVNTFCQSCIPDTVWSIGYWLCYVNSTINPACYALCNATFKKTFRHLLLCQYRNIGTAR
Protocol: (§1) The functional receptor assay, Receptor Selection and Amplification Technology (R-SAT), was used (with minor modifications from that previously described U.S. Pat. No. 5,707,798) to screen compounds for efficacy at the 5-HT2A receptor. Briefly, NIH3T3 cells were grown in 96 well tissue culture plates to 70-80% confluence. Cells were transfected for 12-16 hours with plasmid DNAs using superfect (Qiagen Inc.) as per manufacture's protocols. R-SAT's were generally performed with 50 ng/well of receptor and 20 ng/well of Beta-galactosidase plasmid DNA. All receptor and G-protein constructs used were in the pSI mammalian expression vector (Promega Inc) as described in U.S. Pat. No. 5,707,798. The 5HT2A receptor gene was amplified by nested PCR from brain cDNA using the oligodeoxynucleotides based on the published sequence (see Saltzman et. al. Biochem. Biophys. Res. Comm. 181:1469-78 (1991)). Large-scale transfections, cells were transfected for 12-16 hours, then trypsinized and frozen in DMSO. Frozen cells were later thawed, plated at 10,000-40,000 cells per well of a 96 well plate that contained drug. With both methods, cells were then grown in a humidified atmosphere with 5% ambient CO2 for five days. Media was then removed from the plates and marker gene activity was measured by the addition of the beta-galactosidase substrate ONPG (in PBS with 5% NP-40). The resulting colorimetric reaction was measured in a spectrophotometric plate reader (Titertek Inc.)at […]. All data were analyzed using the computer program XLFit (IDBSm). Efficacy is the percent maximal repression compared to repression by a control compound (ritanserin in the case of 5HT2A). pIC50 is the negative of the log(IC50), where IC50 is the calculated concentration in Molar that produces 50% maximal repression.
(§2) The R-SAT assay (described above in example 289) was used to investigate the selectivity of 4-(4-Fluoro-benzyl)-3-(4-isobutoxy-benzyl)-8-methyl-1-oxa-3,8-diaza-spiro[4.5]decan-2-one.

D3 = target: T2, D3 (Homo sapiens, UniProt P35462); conditions: read-out: pEC50 or pIC50 (converted)
T2 construct: expressed in transfected cells; host or cells: NIH3T3
T2 sequence (P35462 whole entry): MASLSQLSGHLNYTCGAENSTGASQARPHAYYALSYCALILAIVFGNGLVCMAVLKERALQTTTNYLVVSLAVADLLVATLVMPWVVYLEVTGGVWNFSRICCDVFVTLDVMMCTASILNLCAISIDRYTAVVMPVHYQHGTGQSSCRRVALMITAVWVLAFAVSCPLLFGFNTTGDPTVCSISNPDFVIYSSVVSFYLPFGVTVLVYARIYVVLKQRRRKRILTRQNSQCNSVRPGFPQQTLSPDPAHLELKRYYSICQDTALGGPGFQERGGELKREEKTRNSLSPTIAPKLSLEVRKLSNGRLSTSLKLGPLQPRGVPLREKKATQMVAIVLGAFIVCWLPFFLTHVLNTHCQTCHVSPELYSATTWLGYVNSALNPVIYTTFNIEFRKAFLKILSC
Protocol: as §1, §2

5HT7A = target: T3, 5HT7A (Homo sapiens, UniProt P34969); conditions: read-out: pEC50 or pIC50 (converted)
T3 construct: expressed in transfected cells; host or cells: NIH3T3
T3 sequence (P34969 1-445 isoform P34969-2): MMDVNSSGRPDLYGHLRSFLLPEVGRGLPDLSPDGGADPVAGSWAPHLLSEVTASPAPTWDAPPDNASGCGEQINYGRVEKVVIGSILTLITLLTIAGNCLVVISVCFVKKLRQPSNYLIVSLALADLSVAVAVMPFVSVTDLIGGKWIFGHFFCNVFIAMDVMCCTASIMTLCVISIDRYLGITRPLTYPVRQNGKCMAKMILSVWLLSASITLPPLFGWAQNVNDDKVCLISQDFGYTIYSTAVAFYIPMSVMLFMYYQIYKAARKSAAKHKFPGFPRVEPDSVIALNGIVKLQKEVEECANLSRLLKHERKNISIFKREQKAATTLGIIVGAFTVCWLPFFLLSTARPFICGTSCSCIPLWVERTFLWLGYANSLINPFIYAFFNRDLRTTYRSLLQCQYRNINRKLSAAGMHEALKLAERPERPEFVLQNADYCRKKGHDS
Protocol: as §1, §2

oprk 1 = target: T4, oprk 1 (Homo sapiens, UniProt P41145); conditions: read-out: pEC50 or pIC50 (converted)
T4 construct: expressed in transfected cells; host or cells: NIH3T3
T4 sequence (P41145 whole entry): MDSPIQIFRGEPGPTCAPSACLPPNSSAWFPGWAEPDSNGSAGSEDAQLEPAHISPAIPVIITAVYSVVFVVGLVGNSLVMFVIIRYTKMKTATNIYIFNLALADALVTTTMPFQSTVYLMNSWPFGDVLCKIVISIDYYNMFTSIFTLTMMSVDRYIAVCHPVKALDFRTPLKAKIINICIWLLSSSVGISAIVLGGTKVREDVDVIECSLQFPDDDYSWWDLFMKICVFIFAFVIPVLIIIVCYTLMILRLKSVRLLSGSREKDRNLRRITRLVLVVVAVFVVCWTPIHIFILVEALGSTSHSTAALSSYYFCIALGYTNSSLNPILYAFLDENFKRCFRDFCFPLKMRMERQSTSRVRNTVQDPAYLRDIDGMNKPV
Protocol: as §1, §2

alpha 1B = target: T5, alpha 1B (Mesocricetus auratus, UniProt P18841); conditions: read-out: pEC50 or pIC50 (converted)
T5 construct: expressed in transfected cells; host or cells: NIH3T3
T5 sequence (P18841 whole entry): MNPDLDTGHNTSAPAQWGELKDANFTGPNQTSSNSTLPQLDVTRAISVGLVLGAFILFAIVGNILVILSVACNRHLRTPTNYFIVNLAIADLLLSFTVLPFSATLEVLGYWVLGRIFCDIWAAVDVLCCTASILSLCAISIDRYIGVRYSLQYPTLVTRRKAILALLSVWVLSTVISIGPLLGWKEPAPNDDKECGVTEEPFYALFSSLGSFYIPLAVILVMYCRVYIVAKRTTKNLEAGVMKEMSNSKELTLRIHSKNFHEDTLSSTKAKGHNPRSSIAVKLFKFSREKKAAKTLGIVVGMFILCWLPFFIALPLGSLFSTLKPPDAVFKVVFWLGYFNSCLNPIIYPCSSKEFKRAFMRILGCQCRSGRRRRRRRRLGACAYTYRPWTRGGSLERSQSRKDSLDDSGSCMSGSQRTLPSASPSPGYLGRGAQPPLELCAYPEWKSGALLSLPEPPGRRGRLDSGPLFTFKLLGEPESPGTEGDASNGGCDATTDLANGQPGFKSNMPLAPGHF
Protocol: as §1, §2

D1 = target: T6, D1 (Homo sapiens, UniProt P21728); conditions: read-out: pEC50 or pIC50 (converted)
T6 construct: expressed in transfected cells; host or cells: NIH3T3
T6 sequence (P21728 whole entry): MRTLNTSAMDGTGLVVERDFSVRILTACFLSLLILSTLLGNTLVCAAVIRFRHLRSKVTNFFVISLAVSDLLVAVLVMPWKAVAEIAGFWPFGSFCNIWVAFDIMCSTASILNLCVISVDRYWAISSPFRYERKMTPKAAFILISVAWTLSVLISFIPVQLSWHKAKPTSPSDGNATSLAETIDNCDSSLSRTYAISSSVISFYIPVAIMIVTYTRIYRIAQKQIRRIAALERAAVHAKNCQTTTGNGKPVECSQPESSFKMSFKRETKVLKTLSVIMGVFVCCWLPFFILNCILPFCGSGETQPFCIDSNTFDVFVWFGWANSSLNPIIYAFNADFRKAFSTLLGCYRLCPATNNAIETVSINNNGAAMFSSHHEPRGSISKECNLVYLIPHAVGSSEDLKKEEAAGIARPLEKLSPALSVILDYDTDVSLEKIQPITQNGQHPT
Protocol: as §1, §2

alpha 2A = target: T7, alpha 2A (Homo sapiens, UniProt P08913); conditions: agonist; read-out: pEC50 or pIC50 (converted)
T7 construct: expressed in transfected cells; host or cells: NIH3T3
T7 sequence (P08913 1-465): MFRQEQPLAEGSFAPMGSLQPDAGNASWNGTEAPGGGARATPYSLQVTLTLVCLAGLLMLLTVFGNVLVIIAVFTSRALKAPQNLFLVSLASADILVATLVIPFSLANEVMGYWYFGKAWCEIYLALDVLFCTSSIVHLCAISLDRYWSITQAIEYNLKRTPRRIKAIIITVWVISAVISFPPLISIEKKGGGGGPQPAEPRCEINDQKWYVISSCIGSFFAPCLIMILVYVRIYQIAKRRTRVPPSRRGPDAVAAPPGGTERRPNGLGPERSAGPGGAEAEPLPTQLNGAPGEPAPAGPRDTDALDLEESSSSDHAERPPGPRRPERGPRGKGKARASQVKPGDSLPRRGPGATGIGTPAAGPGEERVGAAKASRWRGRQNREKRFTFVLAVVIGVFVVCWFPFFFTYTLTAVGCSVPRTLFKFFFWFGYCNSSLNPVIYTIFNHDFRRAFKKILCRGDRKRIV
Protocol: as §1, §2

alpha 2B = target: T8, alpha 2B (Homo sapiens, UniProt P18089); conditions: read-out: pEC50 or pIC50 (converted)
T8 construct: expressed in transfected cells; host or cells: NIH3T3
T8 sequence (P18089 1-450): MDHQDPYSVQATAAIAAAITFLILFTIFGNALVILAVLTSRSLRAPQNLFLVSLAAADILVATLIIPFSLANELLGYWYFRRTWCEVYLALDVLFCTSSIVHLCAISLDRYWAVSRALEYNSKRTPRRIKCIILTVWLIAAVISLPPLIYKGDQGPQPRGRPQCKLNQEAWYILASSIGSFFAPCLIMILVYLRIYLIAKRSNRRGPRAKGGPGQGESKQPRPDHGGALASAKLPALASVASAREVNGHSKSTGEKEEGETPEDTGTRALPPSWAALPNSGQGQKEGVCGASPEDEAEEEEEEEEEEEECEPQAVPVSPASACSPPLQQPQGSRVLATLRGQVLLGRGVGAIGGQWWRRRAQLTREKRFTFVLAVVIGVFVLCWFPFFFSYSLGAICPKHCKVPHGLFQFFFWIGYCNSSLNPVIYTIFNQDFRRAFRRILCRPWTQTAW
Protocol: as §1, §2

CC(C)COc1ccc(CN2C(=O)OC3(CCN(C)CC3)C2Cc2ccc(F)cc2)cc1.Cl (racemic) [Example 69NLS75, 4-(4-Fluorobenzyl)-3-(4-isobutoxybenzyl)-8-methyl-1-oxa-3,8-diazaspiro[4.5]decan-2-one, hydrochloride]
> 3.16 µM: EC50 (m4) | EC50 (D3; agonist) | IC50 (D3; antagonist) | EC50 (5HT7A; agonist) | IC50 (5HT7A; inverse) | EC50 (oprk 1; agonist) | IC50 (oprk 1; antagonist) | EC50 (alpha 1B; agonist) | IC50 (alpha 1B; antagonist) | EC50 (D1; agonist) | IC50 (D1; antagonist) | EC50 (alpha 2A) | EC50 (alpha 2B; agonist) | IC50 (alpha 2B; antagonist)
